# Results taken from patent US20040024024A1, “Aromatic sulfone hydroxamates and their use as protease inhibitors” (priority 2001, published 2004).
# Columns and labels:
# Assay in all cases: In vitro MMP inhibition, Ki determination (fluorogenic substrate II)
# Type in all cases: biochemical
# Human recombinant MMP-1 = molecular target: T1, Human recombinant MMP-1 (Homo sapiens, UniProt P03956)
# T1 construct: made in house; host or cells: MMP-1-transfected HT-1080 cells (spent media)
# T1 sequence (P03956 100-469): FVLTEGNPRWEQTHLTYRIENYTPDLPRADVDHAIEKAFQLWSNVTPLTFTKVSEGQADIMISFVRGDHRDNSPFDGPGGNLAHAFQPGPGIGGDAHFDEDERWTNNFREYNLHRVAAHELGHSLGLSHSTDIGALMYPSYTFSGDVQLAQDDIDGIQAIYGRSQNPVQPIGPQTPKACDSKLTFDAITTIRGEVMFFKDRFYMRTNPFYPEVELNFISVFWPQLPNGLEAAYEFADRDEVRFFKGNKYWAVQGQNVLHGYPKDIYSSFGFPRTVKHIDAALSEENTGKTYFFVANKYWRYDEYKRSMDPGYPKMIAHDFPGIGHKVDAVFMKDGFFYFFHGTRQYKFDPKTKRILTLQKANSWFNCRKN
# In short: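 Activated human recombinant MMP-1 (APMA- or trypsin-activated; proenzyme from transfected HT-1080 cells) incubated 1 hr at room temperature with 4 μM MCA/Dpa fluorogenic substrate II at or below Km in Tris buffer pH 7.5 with CaCl2. Fluorescence ex 330/em 420 nm; Ki from Morrison-equation non-linear regression, uncorrected for substrate.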
# Human recombinant MMP-13 = molecular target: T2, Human recombinant MMP-13 (Homo sapiens, UniProt P45452)
# T2 construct: made in house; host or cells: baculovirus / insect cells
# In short: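 Baculovirus-expressed proenzyme, APMA-activated; 4 μM fluorogenic MCA/Dpa peptide substrate (II), at or below Km, in Tris buffer pH 7.5 with CaCl2, 1 hr at room temperature. Fluorescence at 330/420 nm; Ki from non-linear regression with Morrison's equation, not corrected for substrate.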
# Human recombinant MMP-14 = molecular target: T3, Human recombinant MMP-14 (Homo sapiens, UniProt P50281)
# T3 construct: The catalytic domain enzyme was expressed in E. coli inclusion bodies, solubilized in urea; made in house
# In short: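 Refolded E. coli-expressed MMP-14 catalytic domain, APMA- or trypsin-activated, incubated 1 h at room temperature with 4 μM fluorogenic substrate II in pH 7.5 Tris/NaCl/CaCl2 buffer; fluorescence read at 330/420 nm. Ki from Morrison-equation non-linear regression, substrate at or below Km, uncorrected for substrate.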
# [1] = substrate (II) 4 μM, 1 hr room temperature, apparent Ki, values in parenthesis
Ki (Human recombinant MMP-1; value in parentheses),Ki (Human recombinant MMP-13; value in parentheses),Ki (Human recombinant MMP-14; value in parentheses),Ki (Human recombinant MMP-1; value in parenthesis),Ki (Human recombinant MMP-13; value in parenthesis),Ki (Human recombinant MMP-14; value in parenthesis),Compound,further results
> 10 µM,0.616 nM,0.549 µM,–,–,–,O=C(NO)C1(S(=O)(=O)c2ccc(OCCCOc3cccnc3)cc2)CCOCC1 [Example 560],–
> 10 µM,1.87 nM,> 10 µM,–,–,–,COCCN1CCC(C(=O)NO)(S(=O)(=O)c2ccc(OCCc3cccc(-c4ccc(F)c(F)c4)c3)cc2)CC1 [Example 549],–
> 10 µM,0.62 nM,2.06 µM,–,–,–,CCCCc1ccc(COc2ccc(S(=O)(=O)C3(C(=O)NO)CCOCC3)cc2)cn1 [Example 551],–
> 10 µM,2.57 nM,5.7 µM,–,–,–,CCC(=O)c1cccc(CCCOc2ccc(S(=O)(=O)C3(C(=O)NO)CCOCC3)cc2)c1 [Example 528],–
–,–,–,> 10 µM,81.3 nM,> 10 µM,O=C(NO)C1(S(=O)(=O)c2ccc(OCCc3cccc(-c4cc(Cl)cc(Cl)c4)c3)cc2)CCOCC1 [Example 126],–
> 10 µM,0.98 nM,9.27 µM,–,–,–,COCCN1CCC(C(=O)NO)(S(=O)(=O)c2ccc(OCCCc3cccc(-c4ccc(F)cc4F)c3)cc2)CC1 [Example 513],–
–,–,–,> 10 µM,18.8 nM,> 10 µM,Cc1cc(-c2cccc(CCOc3ccc(S(=O)(=O)C4(C(=O)NO)CCOCC4)cc3)c2)ccc1Cl [Example 118],–
> 10 µM,0.58 nM,> 10 µM,–,–,–,COCCN1CCC(C(=O)NO)(S(=O)(=O)c2ccc(OCCc3cccc(-c4ccccc4F)c3)cc2)CC1 [Example 540],–
> 10 µM,0.24 nM,> 10 µM,–,–,–,O=C(NCCSc1ccc(S(=O)(=O)C2(C(=O)NO)CCN(C3CC3)CC2)cc1)c1nc2ccccc2s1 [Example 541],–
> 10 µM,1.02 nM,> 10 µM,–,–,–,O=C(NO)C1(S(=O)(=O)c2ccc(OCCc3ccc(-c4cccc(O)c4)cc3)cc2)CCOCC1 [Example 532],–
> 10 µM,3.68 nM,0.0522 µM,–,–,–,O=C(NO)C1(S(=O)(=O)c2ccc(OCCc3cccnc3)cc2)CCOCC1 [Example 557],–
–,–,–,–,–,–,COCCN1CCC(C(=O)NO)(S(=O)(=O)c2ccc(OCCCc3cccc(-c4ccc(F)c(F)c4)c3)cc2)CC1 [Example 52],Ki (Human recombinant MMP-1; [1]): > 10 µM; Ki (Human recombinant MMP-13; [1]): 0.81 nM; Ki (Human recombinant MMP-14; [1]): > 10 µM
5.1 µM,0.044 nM,1.36 µM,–,–,–,Cc1ccc(NC(=O)CCCOc2ccc(S(=O)(=O)C3(C(=O)NO)CCOCC3)cc2)cc1I [Example 527],–
–,–,–,> 10 µM,51.2 nM,> 10 µM,O=C(NO)C1(S(=O)(=O)c2ccc(OCCc3cccc(-c4ccc(OC(F)(F)F)cc4)c3)cc2)CCOCC1 [Example 112],–
> 10 µM,0.261 nM,3.87 µM,–,–,–,CCc1ccc(CCCOc2ccc(S(=O)(=O)C3(C(=O)NO)CCOCC3)cc2)cn1 [Example 535],–
–,–,–,–,–,–,COCCN1CCC(C(=O)NO)(S(=O)(=O)c2ccc(OCCCc3cccc(-c4ccc(Cl)cc4)c3)cc2)CC1 [Example 50],Ki (Human recombinant MMP-1; [1]): > 10 µM; Ki (Human recombinant MMP-13; [1]): 0.6 nM; Ki (Human recombinant MMP-14; [1]): > 10 µM
–,–,–,> 10 µM,12.5 nM,> 10 µM,O=C(NO)C1(S(=O)(=O)c2ccc(OCCCc3cccc(-c4ccc(Cl)cc4Cl)c3)cc2)CCOCC1 [Example 171],–
8.97 µM,53.2 nM,3.5 µM,–,–,–,O=C(NO)C1(S(=O)(=O)c2ccc(OCCc3ccccn3)cc2)CCOCC1 [Example 556],–
–,–,–,> 10 µM,26.9 nM,> 10 µM,O=C(NO)C1(S(=O)(=O)c2ccc(OCCc3cccc(-c4ccc(Cl)c(Cl)c4)c3)cc2)CCOCC1 [Example 121],–
–,–,–,> 10 µM,3.73 nM,> 10 µM,COCCN1CCC(C(=O)NO)(S(=O)(=O)c2ccc(OCCCc3nc(-c4ccc(C5(c6ccccc6)CC5)cc4)no3)cc2)CC1 [Example 185],–
–,–,–,> 10 µM,0.27 nM,> 10 µM,NC(=O)c1cccc(-c2noc(CCCOc3ccc(S(=O)(=O)C4(C(=O)NO)CCN(C5CC5)CC4)cc3)n2)c1 [Example 129],–
> 10 µM,1.36 nM,> 10 µM,–,–,–,COCCN1CCC(C(=O)NO)(S(=O)(=O)c2ccc(OCCCc3cccc(-c4cccc(F)c4)c3)cc2)CC1 [Example 511],–
> 10 µM,2.28 nM,> 10 µM,–,–,–,COCCN1CCC(C(=O)NO)(S(=O)(=O)c2ccc(OCCc3cccc(-c4ccc(Cl)cc4)c3)cc2)CC1 [Example 547],–
> 10 µM,0.52 nM,2.18 µM,–,–,–,CCCc1ccc(COc2ccc(S(=O)(=O)C3(C(=O)NO)CCOCC3)cc2)cn1 [Example 550],–
> 10 µM,3.4 nM,> 10 µM,–,–,–,CN1CCC(C(=O)NO)(S(=O)(=O)c2ccc(SCCNC(=O)c3cc4ccccc4o3)cc2)CC1 [Example 536],–
> 10 µM,0.38 nM,7.42 µM,–,–,–,COCCN1CCC(C(=O)NO)(S(=O)(=O)c2ccc(OCCc3cccc(-c4ccccn4)c3)cc2)CC1 [Example 548],–
> 10 µM,4.65 nM,> 10 µM,–,–,–,O=C(NO)C1(S(=O)(=O)c2ccc(OCCCc3ccc(F)c(-c4ccccc4)c3)cc2)CCOCC1 [Example 504],–
–,–,–,> 10 µM,15.1 nM,> 10 µM,CCCCc1ccc(-c2noc(CCCOc3ccc(S(=O)(=O)C4(C(=O)NO)CCOCC4)cc3)n2)c(C)c1 [Example 183],–
–,–,–,> 10 µM,27.3 nM,> 10 µM,Cc1cc(-c2cccc(CCCOc3ccc(S(=O)(=O)C4(C(=O)NO)CCOCC4)cc3)c2)ccc1F [Example 168],–
> 10 µM,0.28 nM,4.08 µM,–,–,–,COCCN1CCC(C(=O)NO)(S(=O)(=O)c2ccc(OCCCc3cccc(-c4ccc(C#N)cc4)c3)cc2)CC1 [Example 514],–
